± gives the standard deviation of the averaged measurements.
Compound: CCC1=C[C@@H]2CN(C1)Cc1c([nH]c3ccccc13)[C@@](C(=O)OC)(c1cc3c(cc1OC)N(C)[C@H]1[C@@](O)(C(=O)OC)[C@H](OC(C)=O)[C@]4(CC)C=CCN5CC[C@]31[C@@H]54)C2 [VINORELBINE]
Experiment: surviving fraction relative to DMSO-only wells; higher = less growth inhibition
Conditions: 50 nM; exposure time: 5 days
Procedure, shortened: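 Viability was determined by CellTiter-Glo luminescence, expressed as surviving fraction normalised to the median of DMSO-only wells. The cells were log-phase tumour cell lines seeded at 250–500 per well in 384-well plates and, after 24 hours, exposed continuously for five days to inhibitors at 0.5, 1, 5, 10, 50, 100, 500 and 1000 nM. Three screens per line were run, keeping only lines with replicate Pearson r >0.7 and median Z' >0.3.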

In order of rising surviving fraction:
1. HCC1806 BREAST  0.0363 ± 0.0095
2. HSSYII SYNOVIAL  0.0498 ± 0.003
3. HT1080 SOFT TISSUE  0.0517 ± 0.0055
4. CAL51 BREAST  0.0567 ± 0.0027
5. CASKI CERVIX  0.0597 ± 0.0076
6. BT20 BREAST  0.0683 ± 0.025
7. HS57T BREAST  0.07 ± 0.002
8. HCC78 LUNG  0.0987 ± 0.045
9. HMT3552 BREAST  0.104
10. HCC70 BREAST  0.108 ± 0.012
11. 22RV1 PROSTATE  0.12 ± 0.028
12. HMLE3 BREAST  0.125 ± 0.029
13. HOS BONE  0.13 ± 0.012
14. HCC1954 BREAST  0.1412 ± 0.0011
15. HELA CERVIX  0.145 ± 0.0031
16. BT549 BREAST  0.146 ± 0.037
17. HS578T BREAST  0.153 ± 0.019
18. CAL120 BREAST  0.169 ± 0.017
19. CHLA90 AUTONOMIC GANGLIA  0.177 ± 0.023
20. H23 LUNG  0.205 ± 0.015
21. HCC38 BREAST  0.223 ± 0.039
22. 143B BONE  0.229 ± 0.0071
23. ASKA SYNOVIAL  0.247 ± 0.026
24. HCC202 BREAST  0.383 ± 0.12
25. DU4475 BREAST  0.403 ± 0.091
26. A549 LUNG  0.461 ± 0.034
27. CME SYNOVIAL  0.488 ± 0.098
28. 93VU HEADNECK  0.554 ± 0.011
29. HOSMNG BONE  0.694 ± 0.1
30. CADOES1 SOFT TISSUE  0.877 ± 0.12
31. HCT15 LARGE INTESTINE  0.99 ± 0.064
32. COLO320DM LARGE INTESTINE  1.09 ± 0.047

Same assay, conditions: 100 nM; exposure time: 5 days

In order of falling surviving fraction:
1. COLO320DM LARGE INTESTINE  0.9883 ± 0.006
2. CADOES1 SOFT TISSUE  0.825 ± 0.038
3. HCT15 LARGE INTESTINE  0.819 ± 0.093
4. HOSMNG BONE  0.415 ± 0.028
5. CME SYNOVIAL  0.355 ± 0.085
6. HCC202 BREAST  0.313 ± 0.06
7. A549 LUNG  0.308 ± 0.023
8. 93VU HEADNECK  0.292 ± 0.03
9. ASKA SYNOVIAL  0.229 ± 0.02
10. HCC38 BREAST  0.216 ± 0.029
11. DU4475 BREAST  0.211 ± 0.027
12. H23 LUNG  0.173 ± 0.011
13. 143B BONE  0.1625 ± 0.00071
14. CAL120 BREAST  0.157 ± 0.0098
15. HS578T BREAST  0.138 ± 0.004
16. BT549 BREAST  0.132 ± 0.023
17. HCC1954 BREAST  0.13 ± 0.00071
18. HCC70 BREAST  0.129 ± 0.013
19. HMT3552 BREAST  0.117
20. CHLA90 AUTONOMIC GANGLIA  0.105 ± 0.012
21. HCC78 LUNG  0.094 ± 0.016
22. CASKI CERVIX  0.087 ± 0.005
23. HELA CERVIX  0.0838 ± 0.0042
24. HOS BONE  0.0783 ± 0.0015
25. HS57T BREAST  0.0703 ± 0.013
26. 22RV1 PROSTATE  0.0623 ± 0.0038
27. BT20 BREAST  0.055 ± 0.019
28. HMLE3 BREAST  0.053 ± 0.012
29. HSSYII SYNOVIAL  0.0455 ± 0.0052
30. CAL51 BREAST  0.045 ± 0.0027
31. HT1080 SOFT TISSUE  0.0363 ± 0.00058
32. HCC1806 BREAST  0.0347 ± 0.0038

— the supplement of paper PMC6045584
